10 compounds from ChEMBL document CHEMBL1130577, “Synthesis of irreversible HIV-1 protease inhibitors containing sulfonamide and sulfone as amide bond isosteres” (Bioorg Med Chem Lett, 1997) can be followed below.

In experiment [1] the test system is H9. Briefly: Inhibitory activity was evaluated against HIV-1 in H9 and Sup T1 cell lines as assessed by syncytium formation and reverse transcriptase assay. In kind it is functional, cell-based. The settings on record: Homo sapiens.
Experiment [2] deals with Human immunodeficiency virus type 1 protease (Human immunodeficiency virus 1) (UniProt Q72874). Briefly: Bimolecular rate constant for the formation of HIV-1 protease complex was evaluated.
In experiment [3] the target is Human immunodeficiency virus type 1 protease (Human immunodeficiency virus 1, UniProt Q72874). Briefly: Compound was tested for its inhibitory activity against HIV-1 protease.
The target of another experiment is Cathepsin D (Homo sapiens, UniProt P07339). The experiment can be described thus: Inhibition against human cathepsin D was determined.
Sequence of Cathepsin D (P07339 65-162 limits assumed): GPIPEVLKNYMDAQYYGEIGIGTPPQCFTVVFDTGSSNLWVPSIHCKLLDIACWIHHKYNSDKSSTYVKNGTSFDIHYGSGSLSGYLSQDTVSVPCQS
Sequence of Cathepsin D (P07339 169-412 limits assumed): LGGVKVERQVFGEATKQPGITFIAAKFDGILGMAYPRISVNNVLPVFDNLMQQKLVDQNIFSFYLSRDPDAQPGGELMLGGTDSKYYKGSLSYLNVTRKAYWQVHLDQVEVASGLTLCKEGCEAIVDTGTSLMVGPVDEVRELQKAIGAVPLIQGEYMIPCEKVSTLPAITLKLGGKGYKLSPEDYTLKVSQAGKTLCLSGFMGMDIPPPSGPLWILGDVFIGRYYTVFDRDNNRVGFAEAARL
The target in another experiment is T1, Renin (Homo sapiens, UniProt P00797).
T1 sequence (P00797 whole entry): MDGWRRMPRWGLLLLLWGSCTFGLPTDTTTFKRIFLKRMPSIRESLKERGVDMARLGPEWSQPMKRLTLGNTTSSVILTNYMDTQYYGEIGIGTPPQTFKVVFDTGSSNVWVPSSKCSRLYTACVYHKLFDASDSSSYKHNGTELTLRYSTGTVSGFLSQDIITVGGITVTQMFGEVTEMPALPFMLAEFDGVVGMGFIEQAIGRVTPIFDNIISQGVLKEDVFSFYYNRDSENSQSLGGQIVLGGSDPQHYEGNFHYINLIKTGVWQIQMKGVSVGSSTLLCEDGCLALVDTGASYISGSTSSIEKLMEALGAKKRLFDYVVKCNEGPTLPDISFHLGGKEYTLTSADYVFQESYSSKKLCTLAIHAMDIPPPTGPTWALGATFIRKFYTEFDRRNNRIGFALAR
The experiment can be described thus: Inhibition against human renin was determined; IA means inactive.

The test system of experiment [4] is H9. Briefly: Inhibitory activity was evaluated against HIV-1 protease by using reverse transcription assay. The format is functional, cell-based. The settings on record: Homo sapiens.

The IC50 is the concentration at which inhibition is half-maximal. A higher IC50 goes with a need for much substance. The term Ki denotes a measure of affinity in units of concentration, obtained from inhibition or displacement. As to `CCN(c1ccccc1)S(=O)(=O)CC[C@@H]1O[C@@H]1[C@H](Cc1ccccc1)NC(=O)[C@@H](NC(=O)OCc1ccccc1)C(C)(C)S(C)(=O)=O`, 13.8 nM corresponded to half-maximal inhibition with H9 [1] (IC50). This compound also registered a K inact/Ki in experiment [2] of 4.3e+07 M⁻¹ min⁻¹. The compound further yielded a Ki in experiment [3] of 4.6 nM.
`CCN(c1ccccc1)S(=O)(=O)CC[C@@H]1O[C@@H]1[C@H](Cc1ccccc1)NC(=O)[C@@H](NC(=O)c1ccc2ccccc2n1)C(C)(C)S(C)(=O)=O` registered an IC50 in the experiment on H9 [1] of 10.7 nM. In experiment [2], this compound yielded a K inact/Ki of 3.9e+07 M⁻¹ min⁻¹. This compound also displayed a Ki in experiment [3] of 5 nM.
The compound `CC(C)C(NC(=O)C[C@@H]1O[C@@H]1[C@H](Cc1ccccc1)NC(=O)[C@H](CC(N)=O)NC(=O)c1ccc2ccccc2n1)C(C)C` came in with an IC50 in the experiment with H9 [1] of 20 nM. Besides, the K inact/Ki in experiment [2] was found to be 2e+08 M⁻¹ min⁻¹.
For the compound `CCN(C(C)C)S(=O)(=O)CC[C@@H]1O[C@@H]1[C@H](Cc1ccccc1)NC(=O)[C@@H](NC(=O)c1ccc2ccccc2n1)C(C)(C)S(C)(=O)=O`, the IC50 in the experiment on H9 [1] was 6.6 nM; against Cathepsin D it was 8.2 µM; against Renin it was “Not Active”. The K inact/Ki in experiment [2] amounted to 2.9e+07 M⁻¹ min⁻¹. The same compound had a Ki in experiment [3] of 7 nM.
In the experiment with H9 [1], `CC(C)(C)NS(=O)(=O)CC[C@@H]1O[C@@H]1[C@H](Cc1ccccc1)NC(=O)C(CC(N)=O)NC(=O)c1ccc2ccccc2n1` (stereo partly specified) came in with an IC50 of 30 nM. Also, the K inact/Ki in experiment [2] was determined as 1.5e+07 M⁻¹ min⁻¹. Moreover, the affinity in experiment [3], expressed as Ki, was 12.6 nM.
Taken in the same sequence, the figures for `CCN(C(C)C)S(=O)(=O)CC[C@@H]1O[C@@H]1[C@H](Cc1ccccc1)NC(=O)[C@@H](NC(=O)c1cccs1)C(C)(C)S(C)(=O)=O` were 18.2 nM, 6.3e+07 M⁻¹ min⁻¹ and 3.1 nM.
For `CC(C)N(C(=O)c1ccccc1)S(=O)(=O)CC[C@@H]1O[C@@H]1[C@H](Cc1ccccc1)NC(=O)[C@@H](NC(=O)OCc1ccccc1)C(C)(C)S(C)(=O)=O`, half-maximal inhibition in the experiment with H9 [1] (IC50) was put at 15 nM. In experiment [2], the K inact/Ki is 5.5e+07 M⁻¹ min⁻¹. This compound also gave a Ki in experiment [3] of 3.6 nM.
In the experiment on H9 [1], `CCN(CC(C)C)S(=O)(=O)CC[C@@H]1O[C@@H]1[C@H](Cc1ccccc1)NC(=O)[C@@H](NC(=O)OCc1ccccc1)C(C)(C)S(C)(=O)=O` had a half-maximal inhibitory concentration (IC50) of 10.7 nM. Moreover, the K inact/Ki in experiment [2] was 6.9e+07 M⁻¹ min⁻¹. This compound also came in with a Ki in experiment [3] of 2.9 nM.
For the compound `CCN(C(C)C)S(=O)(=O)CC[C@@H]1O[C@@H]1[C@H](Cc1ccccc1)NC(=O)[C@@H](NC(=O)OCc1ccccc1)C(C)(C)S(C)(=O)=O`, the K inact/Ki in experiment [2] is 9.8e+07 M⁻¹ min⁻¹. Moreover, the IC50 with H9 [4] amounted to 10.9 nM. The inhibitory constant (Ki) in experiment [3] was determined as 0.8 nM.
In the experiment with H9 [1], `CC(C)(C)NS(=O)(=O)CC[C@@H]1O[C@@H]1[C@H](Cc1ccccc1)NC(=O)[C@@H](NC(=O)OCc1ccccc1)C(C)(C)S(C)(=O)=O` gave a 50% inhibitory concentration (IC50) of 20.2 nM. The K inact/Ki in experiment [2] is 8e+07 M⁻¹ min⁻¹. For the same compound, affinity in experiment [3] was put at a Ki of 0.7 nM.
